According to patent US20230348394A1, “COMPOSITIONS AND METHODS FOR TREATING MUSCULAR DYSTROPHIES” (The Regents of the University of California, priority 2020, published 2023):

Tested on: alpha-dystroglycan (α-DG) at the cell surface
Assay: Cell surface protein biotinylation and immunoblot, C2C12 myotubes
Type: cell-based, murine
Conditions: 5 μM, 48 hours
Procedure: Myotubes treated for 48 hrs were lysed using RIPA buffer (Thermo Fisher Scientific) containing Halt Protease Inhibitor Cocktail (Thermo Fisher Scientific). Cell lysates in RIPA buffer were rocked for 1 hr at 4° C. and centrifuged at 1,000 RPM for 30 mins at 4° C. The supernatant was collected, quantified for protein concentration using the DC protein assay (Bio-Rad), and normalized to 2 mg/ml in water and Laemmli sample buffer with a final concentration of 10% glycerol (Sigma-Aldrich), 5% beta-mercaptoethanol (Sigma-Aldrich), 3% sodium dodecyl sulfate (Sigma-Aldrich), and 0.05% bromophenol blue (Sigma-Aldrich). For SDS-PAGE, samples were heated to 95° C. for 2 mins before loading 40 μg onto 4-12% tris-glycine or bis-tris polyacrylamide gels (Novex), electrophoresed for 2 hrs at 100 volts at RT, and transferred to a nitrocellulose membrane for 2 hrs at 100 volts at 4° C. Ponceau S staining was performed to visualize protein loading and verify protein transfer. […] Autoradiography films were developed using a SRX-101A tabletop processor (Konica Minolta), scanned to a digital file, and analyzed by densitometry of bands using ImageJ version 1.51 s. […]

SMILES: CCN(CC)c1ccc2cc(C(=O)Nc3ccc(C(=O)N4CCCCCC4)cc3)c(=O)oc2c1 [OT-9]
- increase of core α-DG at the cell surface: 1.6 fold
- increase of glycosylated α-DG at the cell surface: 1.8 fold
